Data taken from BindingDB's records for patent US10294246 (Merck Patent, 2019).
pIC50: −log10 of the molar value.

Molecular target: T1, Proteasome subunit beta type-8 (Homo sapiens, UniProt P28062)
T1 sequence (P28062 whole entry): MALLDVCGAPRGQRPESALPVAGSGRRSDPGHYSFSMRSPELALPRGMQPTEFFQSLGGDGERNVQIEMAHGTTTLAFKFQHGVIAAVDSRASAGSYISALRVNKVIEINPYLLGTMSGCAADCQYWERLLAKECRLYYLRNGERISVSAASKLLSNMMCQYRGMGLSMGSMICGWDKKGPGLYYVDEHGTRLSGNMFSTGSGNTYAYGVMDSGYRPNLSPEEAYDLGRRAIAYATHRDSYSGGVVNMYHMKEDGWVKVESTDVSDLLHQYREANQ
Assay: Determination of LMP7 Activity
Method: Measurement of LMP7 inhibition is performed in 384 well format based on fluorescence intensity assay.Purified human immunoproteasome (0.25 nM) and serial diluted compounds in DMSO (range of concentrations from 30 μM to […]) or controls are incubated for 20 minutes at 25° C. in assay buffer containing 50 mM Tris pH 7.4, 0.03% SDS, 1 mM EDTA and 1% DMSO. The reaction is initiated by the addition of the fluorogenic peptide substrate, Suc-LLVY-AMC (Bachem 1-1395), at a concentration of 40 μM. After 60 minutes of incubation at 37° C., fluorescence intensity is measured at λex=350 nm and λem=450 nm with a fluorescence reader (Perkin Elmer Envision reader or equivalent).

Compound | pIC50
Cc1ccc(OCCC(=O)N[C@@H](Cc2coc3ccccc23)B(O)O)cc1 [US10294246, Compound No. 7] | > 7.30
CCO[C@@H](C(=O)N[C@@H](Cc1coc2ccccc12)B(O)O)c1ccccc1 [US10294246, Compound No. 70] | > 7.30
CC(=O)Nc1cccc(CC(=O)N[C@@H](Cc2coc3ccccc23)B(O)O)c1 [US10294246, Compound No. 32] | > 7.30
CO[C@H](C(=O)N[C@@H](Cc1coc2ccccc12)B(O)O)c1ccccc1 [US10294246, Compound No. 33] | > 7.30
C[C@H](C(=O)N[C@@H](Cc1coc2ccccc12)B(O)O)c1ccccc1 [US10294246, Compound No. 37] | > 7.30
CC(=O)Nc1ccc(CC(=O)N[C@@H](Cc2coc3ccccc23)B(O)O)cc1 [US10294246, Compound No. 26] | > 7.30
COc1ccc(C(F)(F)C(=O)N[C@@H](Cc2coc3ccccc23)B(O)O)cc1 [US10294246, Compound No. 51] | > 7.30
